Experimental data taken from patent US10941139B2, “Cryptophycin compounds and conjugates, their preparation and their therapeutic use” (priority 2015, dated 2021).
Where “and” joins values, the source holds several entries; their conditions need not be identical. Identical values can stand only once. Like-named read-outs stand apart in the source and are kept apart here.

Tests used:
HCT116 cells = assay: Inhibition of proliferation of the HCT116 cell line by the cryptophycin compounds of formula (I) (14C-thymidine incorporation); type: cell-based; conditions: tested as pure β epoxide or α/β epoxide mixture (structural comment)
Procedure: (§1) Evaluation of the Inhibition of Proliferation of the HCT116 and MDA-MB-231 Cell Lines by the Cryptophycin Compounds of Formula (I)
(§2) HCT116 and MDA-MB-231 cells in their exponential growth phase were trypsinized and resuspended in their respective culture medium (DMEM/F12 Gibco #21331, 10% FCS Gibco #10500-056, […] Gibco #25030 for the MDA-MB-231 cells; DMEM Gibco #11960, 10% FCS Gibco #10500-056, 2 mM glutamine Gibco #25030 for the HCT116 cells). The cell suspension was seeded in Cytostar 96-well culture plates (GE Healthcare Europe, # RPNQ0163) in the whole culture medium containing serum at a density of 5000 cells/well. After incubation for 4 h, successive dilutions of the cryptophycin compounds were added to the wells at concentrations decreasing from 10^−7 to 10^−12 M (in triplicate for each concentration). The cells were cultured at 37° C. in an atmosphere containing 5% CO2 in the presence of the cryptophycin compounds for 3 d. On the 4th day, 10 μl of a ^14C-thymidine solution (0.1 μCi/well, Perkin Elmer # NEC56825000) were added to each well. The incorporation of ^14C-thymidine was measured 96 h after the start of the experiment with a microbeta radioactivity counter (Perkin Elmer). The data were expressed in the form of a percentage of survival by determining the ratio between the reduced count obtained with the cells treated with the cryptophycin compound and the count obtained with the cells of the control wells (treated with the culture medium alone).
(§3) The inhibitory activity is given by the concentration which inhibits 50% of the activity.

MDA-MB-231 cells = assay: Inhibition of proliferation of the MDA-MB-231 cell line by the cryptophycin compounds of formula (I) (14C-thymidine incorporation); type: cell-based; conditions: 14C-thymidine incorporation at 96 h, tested as pure β epoxide or α/β epoxide mixture (structural comment), read-out: IC50 (pM) MDA-MD-231
Procedure: as §1, §2, §3

[1] = 16-membered ring
lung cancer = conditions: two phase II lung cancer trials; cited from earlier work
[2] = Homo sapiens, HCT-116, 14C-thymidine incorporation at 96 h

With `COc1ccc(C[C@H]2NC(=O)/C=C/C[C@@H]([C@H](C)[C@H]3O[C@@H]3c3ccc(CN)cc3)OC(=O)[C@H](CC(C)C)NC(=O)C(C)(C)C(C)NC2=O)cc1Cl` (stereo partly drawn) [Ex. 18, (3S,10R,16S,E)-16-((S)-1-((2R,3R)-3-(4-(aminomethyl)phenyl)oxiran-2-yl)ethyl)-10-(3-chloro-4-methoxybenzyl)-3-isobutyl-6,6,7-trimethyl-1-oxa-4,8,11-triazacyclohexadec-13-ene-2,5,9,12-tetraone] the IC50 (HCT116 cells; [2]) was 179 pM and the IC50 (MDA-MB-231 cells; Homo sapiens, MDA-MB-231) was 228 pM.

In the case of “(3S,10R,16S,E)-16-((S)-1-((2R,3R)-3-(4-(aminomethyl)phenyl)oxiran-2-yl)ethyl)-10-(3-chloro-4-methoxybenzyl)-6-methyl-3-neopentyl-6-(((triethylsilyl)oxy)methyl)-1-oxa-4, 8,11-triazacyclohexadec-13-ene-2,5,9,12-tetraone [Ex. 32]”, the IC50 (MDA-MB-231 cells) is reported as 1780 pM.

“(3S,10R,16S, E)-10-(3-chloro-4-methoxybenzyl)-16-((R,E)-4-(4-(hydroxymethyl)-phenyl)but-3-en-2-yl)-6,6,7-trimethyl-3-neopentyl-1-oxa-4,8,11-triazacyclohexadec-13-ene-2,5,9,12-tetraone” showed a ring closure, isolated yield ([1]; amide bond) of 54%.

`COc1ccc(C[C@H]2NC(=O)/C=C/C[C@@H]([C@H](C)C3OC3c3ccc(CN)cc3)OC(=O)[C@H](CC(C)C)NC(=O)C(C)(C)C(C)NC2=O)cc1Cl` (stereo partly drawn) [Ex. 8, (3S,10R,16S,E)-16-((S)-1-(3-(4-(aminomethyl)phenyl)oxiran-2-yl)ethyl)-10-(3-chloro-4-methoxybenzyl)-3-isobutyl-6,6,7-trimethyl-1-oxa-4,8,11-triazacyclohexadec-13-ene-2,5,9,12-tetraone] showed an IC50 (HCT116 cells; [2]) of 518 pM and an IC50 (MDA-MB-231 cells; Homo sapiens, MDA-MB-231) of 564 pM.

`COc1ccc(C[C@H]2NC(=O)/C=C/C[C@@H]([C@H](C)C3OC3c3ccc(CO)cc3)OC(=O)[C@H](C(C)C)NC(=O)C(C)(C)CNC2=O)cc1Cl` (stereo partly drawn) [Ex. 16, (3S,10R,16S,E)-10-(3-chloro-4-methoxybenzyl)-16-((S)-1-(3-(4-(hydroxy-methyl)phenyl)oxiran-2-yl)ethyl)-6,6-dimethyl-3-isopropyl-1-oxa-4,8,11-triazacyclohexadec-13-ene-2,5,9,12-tetraone] gave an IC50 (MDA-MB-231 cells; Homo sapiens, MDA-MB-231) of 2820 pM.

For `COc1ccc(C[C@H]2NC(=O)/C=C/C[C@@H]([C@H](C)[C@H]3O[C@@H]3c3ccccc3)OC(=O)[C@H](CC(C)C)OC(=O)C(C)(C)CNC2=O)cc1Cl` [C-52, cryptophycin C-52, reference compound], the stable disease (lung cancer) is listed as 30-40%, the IC50 (HCT116 cells; 14C-thymidine incorporation at 96 h) is listed as 76 pM and the IC50 (MDA-MB-231 cells) is listed as 90 pM.

In the case of `COc1ccc(C[C@H]2NC(=O)/C=C/C[C@@H]([C@H](C)C3OC3c3ccc(CO)cc3)OC(=O)[C@H](C)NC(=O)C(C)(C)CNC2=O)cc1Cl` (stereo partly drawn) [Ex. 15, (3S,10R,16S,E)-10-(3-chloro-4-methoxybenzyl)-16-((S)-1-(3-(4-(hydroxy-methyl)phenyl)oxiran-2-yl)ethyl)-3,6,6-trimethyl-1-oxa-4,8,11-triazacyclohexadec-13-ene-2,5,9,12-tetraone], the IC50 (MDA-MB-231 cells; Homo sapiens, MDA-MB-231) is reported as 511 pM.

For `COc1ccc(C[C@H]2NC(=O)/C=C/C[C@@H]([C@H](C)[C@H]3O[C@@H]3c3ccc(CO)cc3)OC(=O)[C@H](CC(C)(C)C)NC(=O)C(C)(C)C(C)NC2=O)cc1Cl` (stereo partly drawn) [Ex. 11, (3S,10R,16S,E)-10-(3-chloro-4-methoxybenzyl)-16-((S)-1-((2R,3R)-3-(4-(hydroxymethyl)phenyl)oxiran-2-yl)ethyl)-6,6,7-trimethyl-3-neopentyl-1-oxa-4,8,11-triazacyclohexadec-13-ene-2,5,9,12-tetraone], the IC50 (MDA-MB-231 cells; Homo sapiens, MDA-MB-231) was 102 pM.

“(3S,10R,16S, E)-10-(3-chloro-4-methoxybenzyl)-16-((R,E)-4-(4-(hydroxymethyl)-phenyl)but-3-en-2-yl)-6,6-dimethyl-3-neopentyl-1-oxa-4,8,11-triazacyclohexadec-13-ene-2,5,9,12-tetraone” showed a ring closure, isolated yield ([1]; amide bond) of 70%.

For `COc1ccc(C[C@H]2NC(=O)/C=C/C[C@@H]([C@H](C)[C@H]3O[C@@H]3c3ccc(CN)cc3)OC(=O)[C@H](CC(C)C)NC(=O)C(C)(C)CNC2=O)cc1Cl` [Ex. 1, (3S,10R,16S,E)-16-((S)-1-((2R,3R)-3-(4-(aminomethyl)phenyl)oxiran-2-yl)ethyl)-10-(3-chloro-4-methoxybenzyl)-3-isobutyl-6,6-dimethyl-1-oxa-4,8,11-triazacyclohexadec-13-ene-2,5,9,12-tetraone], the IC50 (HCT116 cells; [2]) was 163 pM and the IC50 (MDA-MB-231 cells; Homo sapiens, MDA-MB-231) was 250 pM.

In the case of “(3S,10R,16S,E)-16-((R,E)-4-(4-(azidomethyl)phenyl)but-3-en-2-yl)-10-(3-chloro-4-methoxybenzyl)-3-isobutyl-6,6-dimethyl-1-oxa-4,8,11-triazacyclohexadec-13-ene-2,5,9,12-tetraone”, the ring closure, isolated yield ([1]; amide bond) is reported as 68%.

`COc1ccc(C[C@H]2NC(=O)/C=C/C[C@@H]([C@H](C)C3OC3c3ccc(CO)cc3)OC(=O)[C@H](C(C)(C)C)NC(=O)C(C)(C)CNC2=O)cc1Cl` (stereo partly drawn) [Ex. 17, (3S,10R,16S,E)-10-(3-chloro-4-methoxybenzyl)-16-((S)-1-(3-(4-(hydroxy-methyl)phenyl)oxiran-2-yl)ethyl)-3-tert-butyl-6,6-dimethyl-1-oxa-4,8,11-triazacyclohexadec-13-ene-2,5,9,12-tetraone] showed an IC50 (MDA-MB-231 cells; Homo sapiens, MDA-MB-231) of 856 pM.

For “(3S,10R,16S, E)-16-((R,E)-4-(4-(azidomethyl)phenyl)but-3-en-2-yl)-10-(3-chloro-4-methoxybenzyl)-3-isobutyl-6,6,7-trimethyl-1-oxa-4,8,11-triazacyclohexadec-13-ene-2,5,9,12-tetraone”, the ring closure, isolated yield ([1]; amide bond) was 53%.

In the case of “(3S,10R,16S,E)-10-(3-chloro-4-methoxybenzyl)-6-(hydroxymethyl)-16-((R)-1-((4-methoxybenzyl)oxy)propan-2-yl)-6-methyl-3-neopentyl-1-oxa-4,8,11-triazacyclohexadec-13-ene-2,5,9,12-tetraone”, the ring closure, isolated yield ([1]; rcm bond) is reported as 56% and 37%.

In the case of `COc1ccc(C[C@H]2NC(=O)/C=C/C[C@@H]([C@H](C)[C@H]3O[C@@H]3c3ccc(CO)cc3)OC(=O)[C@H](CC(C)(C)C)NC(=O)C(C)(C)CNC2=O)cc1Cl` [Ex. 4, (3S,10R,16S,E)-10-(3-chloro-4-methoxybenzyl)-16-((S)-1-((2R,3R)-3-(4-(hydroxy-methyl)phenyl)oxiran-2-yl)ethyl)-6,6-dimethyl-3-neopentyl-1-oxa-4,8,11-triazacyclohexadec-13-ene-2,5,9,12-tetraone], the IC50 (HCT116 cells; [2]) is reported as 51 pM and the IC50 (MDA-MB-231 cells; Homo sapiens, MDA-MB-231) is reported as 82 pM.

Work on “(3S,7S,10R,16S, E)-10-(3-chloro-4-methoxybenzyl)-16-((R)-1-((4-methoxy-benzyl)oxy)propan-2-yl)-6,6,7-trimethyl-3-neopentyl-1-oxa-4,8,11-triazacyclohexadec-13-ene-2,5,9,12-tetraone” yielded a ring closure, isolated yield ([1]; rcm bond) of 61%.
